{
  "source": "patent US20180110754A1",
  "about": "“CENICRIVIROC FOR THE TREATMENT OF FIBROSIS” (Tobira Therapeutics, Inc., priority 2015, published 2018)",
  "key": {"[1]": {"assay": "Phase 1 studies in healthy volunteer subjects", "type": "in vivo, human", "conditions": "single doses up to 800 mg, multiple daily doses up to 200 mg for 10 days", "description": "The frequency and magnitude of transaminase elevations observed across these studies was consistent with the pattern described for Phase 1 studies in scientific literature. […] In both studies and at all doses CVC presented a favorable adverse event profile. […] No clinically relevant changes in ECG parameters or changes for any vital sign parameters were observed during the 48-week treatment period. No apparent dose or exposure relationship for adverse events, laboratory abnormalities (including CPK, ALT, AST and bilirubin elevations) or dose-limiting toxicities were observed."}, "CCR1": {"molecular_target": "CCR1 (Homo sapiens, UniProt P32246)", "sequence (P32246 whole entry)": "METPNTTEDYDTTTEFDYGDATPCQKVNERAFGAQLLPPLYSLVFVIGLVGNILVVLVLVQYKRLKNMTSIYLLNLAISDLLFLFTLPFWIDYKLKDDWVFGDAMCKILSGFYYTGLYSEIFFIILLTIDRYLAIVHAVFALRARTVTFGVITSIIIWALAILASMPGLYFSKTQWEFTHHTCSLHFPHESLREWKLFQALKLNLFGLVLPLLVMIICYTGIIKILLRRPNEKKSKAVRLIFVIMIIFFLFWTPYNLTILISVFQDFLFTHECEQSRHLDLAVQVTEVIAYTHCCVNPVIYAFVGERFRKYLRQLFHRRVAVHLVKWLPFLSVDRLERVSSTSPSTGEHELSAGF", "assay": "Inhibition of ligand binding to CCR1"}, "MCP-1": {"test_system": "MCP-1", "assay": "Study 201: MCP-1, hs-CRP and IL-6 levels", "type": "in vivo, human", "description": "Participants were required to be antiretroviral treatment-experienced, CCR5 antagonist-naive, with HIV-1 RNA levels of at least 5000 copies/mL and CD4+ cell counts of at least 250 cells/mm^3 was performed.\nExploratory assessment of changes in MCP-1 (a ligand of CCR2, which is a chemokine co-receptor expressed on pro-inflammatory monocytes, also known as CCL2), hs-CRP, and IL-6 were performed and significant dose-dependent increases in MCP-1 were observed (Table 23)."}, "HIV-1 BaL": {"test_system": "HIV-1 BaL", "assay": "Extracellular virus (viral RNA, p24) in culture fluids of PM-1 cells exposed to HIV-1 BaL", "type": "cell-based", "conditions": "4 hrs post-infection, CVC 20 nM, MVC 50 nM", "description": "Cells. PM-1 cells that express CD4, CCR5, and CXCR4 were maintained in RPMI-1640 medium containing 10% fetal bovine serum (R10 medium) at 37C, 5% CO2. 293T cells used for transfection were maintained in DMEM at 10% FBS, L-glutamine, and antibiotics (D10 medium) at 37C, 5% CO2. Virus Stocks. HIV-1 BaL virus was produced by transfecting 293T cells with the plasmid pWT/BaL. Lipofectamine 2000 was used as a transfection agent. Culture supernatants were collected at 48 hrs post-transfection, filtered through a 0.45 μm pore filter, and treated with 50 units of benzonase per ml of virus stock for 20 minutes at 37C to remove contaminating plasmid DNA. Virus stocks were frozen at −80C to halt benzonase activity. Benzonase-treated virus stocks were propagated in cord blood mononuclear cells (CBMCs). CBMCs were stimulated for 72 h with phytohemagluttinin (PHA-M) in R10 medium prior to infection with HIV-1 BaL. The viral amplification culture was subsequently grown in R10 supplemented with interleukin 2 (IL-2) and incubated at 37C, 5% CO2.\nBoth drugs were incubated with PM-1 cells for 1 hr at 37 C prior to the addition of virus. 500 ng of p24 antigen of HIV-1 BaL were incubated per 5×10^5 cells in 1 ml of R10 media. Virus only controls, described as “no cell” in the text, were used to measure viral decay. Viral adsorption was measured in the no-drug controls, whereby 500 ng of p24 Ag of HIV-1 Bal were added per 5×10^5 PM-1 cells that were pre-incubated at 37 C for 1 hr in the absence of drug treatment. Each drug treatment and control was performed in duplicate. Viral RNA was extracted from 140 μl of supernatant fluid using the QIAamp Viral RNA mini kit according to manufacturer's instructions. Samples were stored at −80 C until analysis. Supernatant viral loads were measured using quantitative real-time reverse transcription PCR (qRT-PCR) with the primers US1SSF (5′-[…]-3′), US1SSR (5′-[…]-3′) and US1SS probe (5′-(FAM) […]) and the Invitrogen qRT-PCR Supermix Kit. Cycling parameters were: 50° C. for 15 minutes, 95° C. for 10 minutes, followed by 50 cycles of 95° C. for 15 seconds, and 60° C. for 1 minute. All values are the result of replicate testing over 2 independent experiments. RNA copy number was quantified by use of 10-fold serial dilutions of pBaL/wt to generate standard curves for each assay and calibrated against samples with known copy numbers from previous studies."}, "[2]": {"test_system": "thioglycollate-induced peritonitis (monocyte/macrophage and leukocyte recruitment)", "assay": "Mouse thioglycollate-induced peritonitis model: peritoneal lavage cell counts, body weight", "type": "in vivo", "description": "Summary: The mouse thioglycollate induced peritonitis model is a commonly used preclinical model to assess the recruitment of […] cells and to assess the activation of macrophages.\nDexamethasone was used as a positive control in this experiment as it is a corticosteroid known to reduce inflammation in a variety of animal models. Murine inflammation models indicate that the effective dose range for dexamethasone, when administered orally, is 0.3 to 3 mg/kg QD. On this basis, an intermediate dose of 1 mg/kg was chosen for this particular study.\nThe lavage was repeated with a second injection of 2.5 mL via the initial puncture site and the samples were pooled for each animal.\nThe lavage fluid was placed on wet ice pending processing for total and differential cell counts using the Advia analyzer. Following the lavage collection, a blood sample (0.7 mL) was collected from each mouse by intracardiac puncture or from the vena cava (collection time was recorded). 0.5 mL of blood was placed in an EDTA tube, transferred to clinical pathology and analyzed for differential cell counts using the Advia analyzer. 0.2 mL of blood was placed in a K2EDTA tube and processed to plasma. The plasma was collected by centrifugation (3000 rpm for 10 minutes at 4° C.) and placed on dry ice. […] After blood collection, the animals were then exsanguinated by sectioning of the abdominal aorta.\nStatistical Analysis: One-way ANOVA with post-hoc Dunnett's statistical analysis was performed on differential cell counts obtained from lavage and blood samples. The analysis was performed in comparison to Group 2."}, "[3]": {"assay": "Chronic (3- and 9-month) monkey toxicity studies", "type": "in vivo", "conditions": "1000 mg/kg/day"}},
  "data": [
    {"smiles": "CCCCOCCOc1ccc(-c2ccc3c(c2)/C=C(/C(=O)Nc2ccc([S@@+]([O-])Cc4cncn4CCC)cc2)CCCN3CC(C)C)cc1", "note": "[CVC, (S)-8-[4-(2-Butoxyethoxy)phenyl]-1-isobutyl-N-(4-{[(1-propyl-1H-imidazol-5-yl)methyl]sulfinyl}phenyl)-1,2,3,4-tetrahydro-1-benzazocine-5-carboxamide]", "values": [
      {"measurement": "Tolerability", "setting": "[1]", "value": "generally well tolerated"},
      {"measurement": "Inhibition of ligand binding to CCR1", "setting": "CCR1", "value": "did not inhibit"},
      {"measurement": "Effect on hs-CRP or IL-6 levels", "setting": "MCP-1; 10-day study, overall", "value": "no effect"},
      {"measurement": "MCP-1 Baseline, Mean", "setting": "MCP-1; CVC 25 mg", "value": 20.0, "unit": "pg/mL"},
      {"measurement": "MCP-1 Baseline, Median", "setting": "MCP-1; CVC 25 mg", "value": 16.0, "unit": "pg/mL"},
      {"measurement": "MCP-1 Baseline, Range", "setting": "MCP-1; CVC 25 mg", "value": "7 to 44", "unit": "pg/mL"},
      {"measurement": "MCP-1 Change from Baseline to Day 10, Median", "setting": "MCP-1; CVC 25 mg", "value": "+25.0 pg/mL"},
      {"measurement": "MCP-1 Day 10, Mean", "setting": "MCP-1; CVC 25 mg", "value": 75.3, "unit": "pg/mL"},
      {"measurement": "MCP-1 Day 10, Median", "setting": "MCP-1; CVC 25 mg", "value": 39.0, "unit": "pg/mL"},
      {"measurement": "MCP-1 Day 10, Range", "setting": "MCP-1; CVC 25 mg", "value": "10 to 287", "unit": "pg/mL"},
      {"measurement": "MCP-1 Baseline, Mean", "setting": "MCP-1; CVC 50 mg", "value": 12.6, "unit": "pg/mL"},
      {"measurement": "MCP-1 Baseline, Median", "setting": "MCP-1; CVC 50 mg", "value": 6.0, "unit": "pg/mL"},
      {"measurement": "MCP-1 Baseline, Range", "setting": "MCP-1; CVC 50 mg", "value": "5 to 37", "unit": "pg/mL"},
      {"measurement": "MCP-1 Change from Baseline to Day 10, Median", "setting": "MCP-1; CVC 50 mg", "value": "+56.0 pg/mL"},
      {"measurement": "MCP-1 Day 10, Mean", "setting": "MCP-1; CVC 50 mg", "value": 101.3, "unit": "pg/mL"},
      {"measurement": "MCP-1 Day 10, Median", "setting": "MCP-1; CVC 50 mg", "value": 65.0, "unit": "pg/mL"},
      {"measurement": "MCP-1 Day 10, Range", "setting": "MCP-1; CVC 50 mg", "value": "21 to 266", "unit": "pg/mL"},
      {"measurement": "MCP-1 Baseline, Mean", "setting": "MCP-1; CVC 75 mg", "value": 26.6, "unit": "pg/mL"},
      {"measurement": "MCP-1 Baseline, Median", "setting": "MCP-1; CVC 75 mg", "value": 8.0, "unit": "pg/mL"},
      {"measurement": "MCP-1 Baseline, Range", "setting": "MCP-1; CVC 75 mg", "value": "5 to 92", "unit": "pg/mL"},
      {"measurement": "MCP-1 Change from Baseline to Day 10, Median", "setting": "MCP-1; CVC 75 mg", "value": "+36.0 pg/mL"},
      {"measurement": "MCP-1 Day 10, Mean", "setting": "MCP-1; CVC 75 mg", "value": 59.1, "unit": "pg/mL"},
      {"measurement": "MCP-1 Day 10, Median", "setting": "MCP-1; CVC 75 mg", "value": 43.5, "unit": "pg/mL"},
      {"measurement": "MCP-1 Day 10, Range", "setting": "MCP-1; CVC 75 mg", "value": "20 to 128", "unit": "pg/mL"},
      {"measurement": "MCP-1 Baseline, Mean", "setting": "MCP-1; CVC 150 mg", "value": 31.6, "unit": "pg/mL"},
      {"measurement": "MCP-1 Baseline, Median", "setting": "MCP-1; CVC 150 mg", "value": 19.5, "unit": "pg/mL"},
      {"measurement": "MCP-1 Baseline, Range", "setting": "MCP-1; CVC 150 mg", "value": "8 to 82", "unit": "pg/mL"},
      {"measurement": "MCP-1 Change from Baseline to Day 10, Median", "setting": "MCP-1; CVC 150 mg", "value": "+322.0 pg/mL"},
      {"measurement": "MCP-1 Day 10, Mean", "setting": "MCP-1; CVC 150 mg", "value": 372.0, "unit": "pg/mL"},
      {"measurement": "MCP-1 Day 10, Median", "setting": "MCP-1; CVC 150 mg", "value": 368.0, "unit": "pg/mL"},
      {"measurement": "MCP-1 Day 10, Range", "setting": "MCP-1; CVC 150 mg", "value": "79 to 605", "unit": "pg/mL"},
      {"measurement": "p24 antigen level in culture fluids", "setting": "HIV-1 BaL; baseline 506 ng/ml", "value": 192, "unit": "ng/mL"},
      {"measurement": "Viral RNA in culture fluids", "setting": "HIV-1 BaL; baseline 1.19×10^10", "value": "1.26×10^10 copies/ml"},
      {"measurement": "Decrease in monocytes in peritoneal lavage vs thioglycollate control (Group 2)", "setting": "[2]; Group 3 (CVC BID)", "value": 5.7, "unit": "%"},
      {"measurement": "Decrease in total leukocytes in peritoneal lavage vs thioglycollate control (Group 2)", "setting": "[2]; Group 3 (CVC BID)", "value": 0.8, "unit": "%"},
      {"measurement": "Decrease in monocytes in peritoneal lavage vs thioglycollate control (Group 2)", "setting": "[2]; Group 4 (CVC BID)", "value": 45.2, "unit": "%"},
      {"measurement": "Decrease in total leukocytes in peritoneal lavage vs thioglycollate control (Group 2)", "setting": "[2]; Group 4 (CVC BID)", "value": 22.2, "unit": "%"},
      {"measurement": "Decrease in monocytes in peritoneal lavage vs thioglycollate control (Group 2)", "setting": "[2]; Group 5 (CVC BID)", "value": 76.5, "unit": "%"},
      {"measurement": "Decrease in total leukocytes in peritoneal lavage vs thioglycollate control (Group 2)", "setting": "[2]; Group 5 (CVC BID)", "value": 57.6, "unit": "%"},
      {"measurement": "Decrease in monocytes in peritoneal lavage vs thioglycollate control (Group 2)", "setting": "[2]; Group 6 (CVC QD)", "value": 26.0, "unit": "%"},
      {"measurement": "Decrease in total leukocytes in peritoneal lavage vs thioglycollate control (Group 2)", "setting": "[2]; Group 6 (CVC QD)", "value": 14.2, "unit": "%"},
      {"measurement": "Body weights, Days 1 to 6", "setting": "[2]; mouse, in vivo", "value": "no notable changes in body weights"},
      {"measurement": "Inflammation in clinical pathology parameters or any tissue incl. liver (microscopic evaluation)", "setting": "[3]", "value": "No indication of inflammation"},
      {"measurement": "Plasma MCP-1 levels over controls", "setting": "[3]; 3- and 9-month studies", "value": "~5", "unit": "fold"}
    ]}
  ]
}
